Test [1] deals with neonatal rat ventricular myocytes (NRVM). The test can be described thus: Cardiomyocyte cell volume (Coulter counter). Format: cell-based. The conditions noted are these: 48 hours exposure to PE, versus untreated controls, FIG. 9. On the procedure:
NRVM culture. For preparations of neonatal rat ventricular myocytes (NRVMs), hearts were removed from 10-20 newborn (1-2 days old) Sprague-Dawley rats. Isolated ventricles were pooled, minced and dispersed by three 20-minute incubations at 37° C. in Ads buffer (116 mM NaCl, 20 mM HEPES, 10 mM NaH2PO4, 5.5 mM glucose, 5 mM KCl, […], pH 7.4) containing collagenase Type II (65 units/ml, Worthington) and pancreatin (0.6 mg/ml, GibcoBRL). Dispersed cells were applied to a discontinuous gradient of 40.5% and 58.5% (v/v) Percoll (Amersham Biosciences), centrifuged, and myocytes collected from the interface layer. […]
Hypertrophy and toxicity assays. Primary hypertrophy endpoints for NRVM included quantitation of ANF secretion, total cellular protein and cell volume. ANF in media supernatants was quantitated by competitive ELISA using a monoclonal anti-ANF antibody (Biodesign) and a biotinylated ANF peptide (Phoenix Peptide). Total cellular protein was quantitated by standard Coomassie dye-binding assay; cells were lysed in protein assay reagent (BioRad) and absorbance at A595 was measured after 1 hour. […] After recovery by centrifugation, cell pellets were washed in PBS, resuspended in 10 ml IsoFlow electrolyte solution (Beckman-Coulter) and analyzed with a Z2 Coulter Particle Counter and Size Analyzer (Beckman-Coulter). […]

The subject of a further test is beta myosin heavy chain. The test can be described thus: Beta myosin heavy chain protein by cytoblot. Format: cell-based, rat. The conditions noted are these: NRVM, 48 hours exposure to PE, FIG. 10A. On the procedure: NRVM culture. For preparations of neonatal rat ventricular myocytes (NRVMs), hearts were removed from 10-20 newborn (1-2 days old) Sprague-Dawley rats. Isolated ventricles were pooled, minced and dispersed by three 20-minute incubations at 37° C. in Ads buffer (116 mM NaCl, 20 mM HEPES, 10 mM NaH2PO4, 5.5 mM glucose, 5 mM KCl, […], pH 7.4) containing collagenase Type II (65 units/ml, Worthington) and pancreatin (0.6 mg/ml, GibcoBRL). Dispersed cells were applied to a discontinuous gradient of 40.5% and 58.5% (v/v) Percoll (Amersham Biosciences), centrifuged, and myocytes collected from the interface layer. Myocyte preparations were pre-plated in Dulbecco's modified Eagle's medium (DMEM, Cellgro), supplemented with 10% (v/v) fetal bovine serum (FBS, HyClone), 4 mM L-glutamine and 1% penicillin/streptomycin for 1 hour at 37° C. to reduce fibroblast contamination, then plated at a density of 2.5′10^5 cells per well on 6-well tissue culture plates (or 10,000 cells/well on 96-well tissue culture plates) coated with a 0.2% (w/v) gelatin solution. After 24 hours in culture, myocyte preparations were transferred to serum-free maintenance medium (DMEM supplemented with 0.1% (v/v) Nutridoma (Roche), L-glutamine and penicillin/streptomycin). […]
Myosin heavy chain protein quantitation by cytoblot. […] Plates were read in a 96-well luminometer (Packard Fusion).

Structures are written as SMILES.

The results in this text go back to patent US20080031818A1, “Use of Modulators of a Novel Form of Muscle Selective Calcineurin Interacting Protein (Mcip-1-38) as a Treatment for Cardiovascular Diseases” (GILEAD COLORADO, INC., priority 2004, published 2008).

Take `CNC[C@H](O)c1cccc(O)c1` [phenylephrine]: in test [1], the “increase in cell volume” value is listed as “approximately 50%”. Further, the “beta myosin protein expression” value in the test on beta myosin heavy chain is “increased beta myosin protein expression by several fold”.
